# Measured values as given in US20260002109A1, “SYSTEMS AND PROCESSES FOR SKIN TISSUE GROWTH AND ANALYSIS” (Outer Biosciences, Inc., priority 2023, published 2026).
# Key:
# [1] = system: skin tissues; test: Skin irritation: lactate dehydrogenase (LDH) release; format: cell-based; conditions: 2% SDS for 24 hours; compared to untreated samples
# Procedure: A second selection of samples were cultured and subjected to irritating stimuli, whereby a chemical stimulus group was subjected to 2% SDS for 24 hours, a burn group was subjected to 100° C, contact for 90 seconds, and a UV irritation group was subjected to UV-B for 30 minutes. FIGS. 30A-30D illustrate insert images after staining with Masson's Trichrome for untreated, chemical-treated, burn-treated, and UV-treated skin tissues, respectively. FIG. 31A provides an analysis of collagen deposition using histopathological scoring to determine the effects of damage stimuli on each group. As a result of this analysis, both burn and UV irradiation groups were discovered to have reduced collagen deposition compared to the untreated group. […] FIG. 31B provides an analysis of lactate dehydrogenase (LDH) release, which is widely used as a marker for assessing cell death and toxicity. The analysis indicated a significant increase of LDH release from all treatment conditions compared to untreated samples.
# [2] = system: barrier function of the skin; test: Transepidermal water loss (TEWL) measurement on skin biopsies in inserts; format: cell-based; conditions: biopsy edges sealed with Loctite super glue
# From the text: The purpose of this example is to incorporate sealed sensors into an insert. Sealing the biopsy edge using Loctite super glue, as shown in the photograph in FIG. 18A and the histology stain image in FIG. 18B, allowed the measurement of changes in barrier function with sensitivity, as well as preventing leakage of topically-applied substances into the dermis through the edge of the biopsy as well as allowing for the precise measurement of changes in the barrier function of the skin using clinical sensors.
# FIGS. 19A-19B illustrate measurements of transepidermal water loss (TEWL) in model skin that were either not sealed or sealed using Loctite super glue, respectively. TEWL measurements were taken using a Courage+Khazaka Multi Probe Adapter MPA 10. […] FIG. 20 show a comparison in TEWL measurements of the effects of a barrier enhancer (Niacinamide) and a barrier disrupter (SDS) on skin sealed with Loctite super glue over a six-day period.
# [3] = system: skin tissues; test: Skin irritation: collagen deposition by histopathological scoring (Masson's Trichrome); format: cell-based; conditions: 2% for 24 hours; compared to the untreated group
# Procedure: (§1) The purpose of this example is to test and replicate dynamic changes in skin across various types of clinically relevant stimuli, including skin irritations, intradermal injection. cosmetic product treatment, and antioxidant defense. Approximations of skin irritation evaluated in this manner include topical chemical treatment 261, burn treatment 262, and UV treatment 263, as illustrated in FIGS. 26A-26C, respectively. Chemical irritation was approximated through application of 2% SDS for 24 hours, burns were approximated through 100° C, contact with a heated metal rod for 45 seconds, and UV irritation was approximated via UVA and UV application for 30 minutes. […] Skin tissues were evaluated and scored using the parameters in Table 9 as provided above. Include protocol, histological parameters, histology staining and scoring results, immune and inflammatory responses, antioxidant defense assessment, etc.
# A second selection of samples were cultured and subjected to irritating stimuli, whereby a chemical stimulus group was subjected to 2% SDS for 24 hours, a burn group was subjected to 100° C, contact for 90 seconds, and a UV irritation group was subjected to UV-B for 30 minutes. FIGS. 30A-30D illustrate insert images after staining with Masson's Trichrome for untreated, chemical-treated, burn-treated, and UV-treated skin tissues, respectively. […]
# [4] = system: normal skin tissue in an insert; test: Skin irritation: histopathological scoring of H&E stained skin tissue; format: cell-based; conditions: 2% for 24 hours, topical; compared to the control group
# Procedure: as §1
# FIGS. 28A-28D provide H&E stained tissues for a first selection of untreated. chemical-treated, burn-treated, and UV-treated skin tissue samples, respectively. A pathological analysis of the extent of damage was undertaken and is shown in FIGS. 29A-29C to evaluate epidermal damage, eczematous epidermis, and epidermis thickness, respectively, after application of damage stimuli. […] UV irradiation caused epidermal thinning compared to the control group.
# [5] = system: skin tissue; test: Tissue longevity analysis: media conditions judged by histology (epidermis and dermis structure) and culture survival; format: cell-based, human
# From the text: Table 5 provides a plurality of media mixtures applied to skin samples to assess the effects of various testing conditions on the skin tissue.
structure (smiles),measurement,setting,value
CCCCCCCCCCCCOS(=O)(=O)[O-].[Na+] [SDS],LDH release,[1],highest LDH release
same,barrier function by TEWL,[2],reduction in the barrier function
same,collagen deposition,[3],No significant change in collagen deposition
same,eczematous epidermis,[4],moderate eczematous (atopic) epidermis
same,epidermal damage,[4],significant epidermal as evidenced by widespread dyskeratotic cells
same,thickness of epidermis,[4],pathological epidermal thickening (acanthosis)
[Ca+2].[Cl-].[Cl-] [calcium chloride],beneficial effect on skin samples,[5]; 0.1 mM on the surface of skin samples,neither testing condition was observed to have any beneficial effect
same,beneficial effect on skin samples,[5]; 0.5 mM and 1 mM in media,neither testing condition was observed to have any beneficial effect
